Assay results as given in patent EP4737445A1, “NOVEL SATURATED HETEROCYCLE-SUBSTITUTED HETEROARYL-CARBONOHYDRAZONOYL DICYANIDE COMPOUND AND USE THEREOF” (Korea Institute of Science and Technology, priority 2023, dated 2025).
Like-named read-outs stand apart in the source and are kept apart here.

Tests used:
[1] = system: Tau-BiFC cells; assay: Cell viability (stained nuclei count) in Tau-BiFC cells; type: cell-based; details: @10 µM; Tau-BiFC cell line; Forskolin-only group = 100%
Method in brief: (§1)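 Tau-BiFC cells were co-treated with compound (1, 3, 10 µM for screening; 0.03–30 µM for IC50) and 30 µM Forskolin for 48 h. BiFC fluorescence was normalised to the Forskolin-only window for aggregation; viability came from Hoechst-stained nuclei counts relative to Forskolin-only (100%). IC50 was derived by nonlinear regression.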

[2] = target: T1, CYP2C19 (Homo sapiens, UniProt P33261); assay: CYP isoenzyme activity inhibition in human liver microsomes, CYP2C19; type: in vitro ADME; details: 10 µM compound; human liver microsomes 0.25 mg/mL; relative to control without compound
T1 construct: human liver microsomes (0.25 mg/mL); from tissue; host or cells: human liver microsomes
T1 sequence (P33261 whole entry): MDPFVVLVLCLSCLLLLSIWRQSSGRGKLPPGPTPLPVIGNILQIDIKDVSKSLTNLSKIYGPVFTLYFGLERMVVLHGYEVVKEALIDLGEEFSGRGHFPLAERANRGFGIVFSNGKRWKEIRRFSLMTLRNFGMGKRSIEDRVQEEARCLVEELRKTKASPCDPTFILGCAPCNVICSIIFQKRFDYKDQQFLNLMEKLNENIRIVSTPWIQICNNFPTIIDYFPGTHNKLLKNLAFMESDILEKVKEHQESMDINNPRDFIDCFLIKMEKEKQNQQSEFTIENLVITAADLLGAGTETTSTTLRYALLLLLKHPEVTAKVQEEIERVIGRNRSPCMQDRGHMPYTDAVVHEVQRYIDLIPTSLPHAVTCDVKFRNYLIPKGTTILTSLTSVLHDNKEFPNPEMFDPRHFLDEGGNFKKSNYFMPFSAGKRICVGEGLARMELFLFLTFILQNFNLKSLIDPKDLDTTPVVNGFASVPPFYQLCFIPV
Protocol: (§2) The CYP isoenzyme activity inhibitory effect by the compounds prepared according to Examples 1 to 46 was confirmed. Specifically, human liver microsomes (0.25 mg/mL), 0.1 M phosphate buffer solution (pH 7.4), a substrate drug cocktail of five drug metabolizing enzymes (Phenacetin 50 µM, Diclofenac 10 µM, S-mephenytoin 100 µM, Dextromethorphan 5 µM, and Midazolam 2.5 µM), and the compounds were added at concentrations of 0 or 10 µM, respectively, and pre-incubated at 37°C for 5 minutes, and then NADPH generation system solution was added and incubated at 37°C for an additional 15 minutes. Thereafter, an acetonitrile solution containing an internal standard (Terfenadine) was added to terminate the reaction, and after centrifugation for 5 minutes (14,000 rpm, 4°C), the supernatant was injected into an LC-MS/MS system to simultaneously analyze the metabolites of the substrate drugs, thereby evaluating the drug metabolizing enzyme inhibitory activity.
(§3) The metabolites of each CYP isoenzyme marker drug generated through the reaction were analyzed using a Shimadzu Nexera XR system and TSQ vantage (Thermo). A Kinetex C18 (2.1 × 100 mm, 2.6 µm, particle size; Phenomenex, USA) was used as the HPLC column, and (A) distilled water containing 0.1% formic acid and (B) acetonitrile containing 0.1% formic acid were used as mobile phases, and a gradient program as shown in Table 6 below was applied.
(§4) The generated metabolites were quantified using MRM (Multiple Reaction Monitoring) quantitative mode, and Xcalibur (version 1.6.1) was used for data analysis. To show the CYP isoenzyme activity inhibitory effect of the novel compounds prepared according to the Examples of the disclosure, the % activity of CYP isoenzymes relative to the control group without compound addition is shown in Table 6 below. Additionally, to confirm the difference in effect according to substituents, Comparative Compounds 1 and 5, which are two compounds that share a similar parent nucleus structure with Compounds 1 to 46 of the disclosure while Cy is substituted with aromatic heteroaryl instead of saturated heterocyclyl, were selected as comparative compounds and their activities are shown together.

[3] = target: T2, Tau (Homo sapiens, UniProt P10636); assay: Tau aggregation inhibition in Tau-BiFC cell model (Forskolin-induced); type: cell-based
T2 construct: BiFC fluorescent-protein fragments (two complementary halves on two tau copies); expressed in transfected cells
T2 sequence (P10636 1-441 isoform P10636-8): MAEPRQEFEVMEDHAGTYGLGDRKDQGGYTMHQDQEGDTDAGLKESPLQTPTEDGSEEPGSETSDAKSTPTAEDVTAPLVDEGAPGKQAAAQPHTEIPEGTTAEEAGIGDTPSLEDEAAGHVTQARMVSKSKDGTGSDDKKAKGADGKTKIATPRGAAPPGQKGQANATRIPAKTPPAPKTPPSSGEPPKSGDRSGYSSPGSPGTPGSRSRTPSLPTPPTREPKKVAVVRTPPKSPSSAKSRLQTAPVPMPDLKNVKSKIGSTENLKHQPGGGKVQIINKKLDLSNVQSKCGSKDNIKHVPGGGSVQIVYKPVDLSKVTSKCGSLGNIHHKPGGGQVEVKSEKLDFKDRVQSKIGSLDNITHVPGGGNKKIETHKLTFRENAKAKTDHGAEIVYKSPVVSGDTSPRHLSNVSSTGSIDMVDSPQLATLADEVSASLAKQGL
Method in brief: as §1

[4] = target: T3, CYP2D6 (Homo sapiens, UniProt P10635); assay: CYP isoenzyme activity inhibition in human liver microsomes, CYP2D6; type: in vitro ADME; details: 10 µM compound; human liver microsomes 0.25 mg/mL; relative to control without compound
T3 construct: human liver microsomes (0.25 mg/mL); from tissue; host or cells: human liver microsomes
T3 sequence (P10635 whole entry): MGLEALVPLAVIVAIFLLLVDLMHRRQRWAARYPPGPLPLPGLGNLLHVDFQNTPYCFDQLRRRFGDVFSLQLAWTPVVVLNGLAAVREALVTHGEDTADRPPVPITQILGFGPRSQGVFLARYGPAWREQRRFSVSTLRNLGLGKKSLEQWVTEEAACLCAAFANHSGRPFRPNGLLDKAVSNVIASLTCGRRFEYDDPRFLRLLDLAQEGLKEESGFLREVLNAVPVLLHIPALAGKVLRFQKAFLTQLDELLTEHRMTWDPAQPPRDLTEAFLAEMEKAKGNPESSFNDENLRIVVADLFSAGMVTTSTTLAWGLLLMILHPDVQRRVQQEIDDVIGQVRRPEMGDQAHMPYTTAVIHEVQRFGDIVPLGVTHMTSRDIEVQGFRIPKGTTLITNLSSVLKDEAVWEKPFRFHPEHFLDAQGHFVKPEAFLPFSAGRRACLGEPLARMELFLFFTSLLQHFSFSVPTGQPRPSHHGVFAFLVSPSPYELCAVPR
Protocol: as §2, §3, §4

[5] = Liver microsomal stability, mouse; type: in vitro ADME; details: 1 µM compound; 0.5 mg/mL microsomes; NADPH; 30 minutes at 37°C
Protocol: Liver microsomal stability by the compounds prepared according to Examples 1 to 46 was confirmed. Specifically, four types of liver microsomes (human, dog, rat, and mouse each at 0.5 mg/mL), 0.1 M phosphate buffer solution (pH 7.4), and the compounds at 1 µM concentration were added and pre-incubated at 37°C for 5 minutes, and then NADPH generation system solution was added and incubated at 37°C for an additional 30 minutes. Thereafter, an acetonitrile solution containing an internal standard (chloropropamide) was added to terminate the reaction, and after centrifugation for 5 minutes (14,000 rpm, 4°C), the supernatant was injected into an LC-MS/MS system to analyze the substrate drug, thereby evaluating the metabolic stability of 8 compounds.
The amount of remaining substrate through the reaction was analyzed using a Shimadzu Nexera XR system and TSQ vantage (Thermo). A Kinetex XB-C18 (2.1 × 100 mm, 2.6 µm, particle size; Phenomenex, USA) was used as the HPLC column, and (A) distilled water containing 0.1% formic acid and (B) acetonitrile containing 0.1% formic acid were used as mobile phases. Analyst software (version 1.6.3) and Xcalibur (version 1.6.1) were used for data analysis. The calculated results are shown in Table 5 below: Liver microsomal stability data of novel compounds from […] (human, rat, and mouse).

[6] = read-out: Tau aggregation inhibitory effect IC50, Tau-BiFC cell line, Forskolin 30 µM, 48 hours, 0.03-30 µM

Row | Compound | Cell viability (% @10µM) [1] [%] | CYP2C19 (% activity) [2] [% activity] | IC50 [3, 6] [nM] | CYP2D6 (% activity) [4] [% activity] | Mouse microsomes (% remaining) [5] [% remaining] | IC50 [3] [nM]
1 | N#CC(C#N)=NNc1ccc2nc(NC(=O)N3CCOCC3)sc2c1 [Compound 38, (2-(morpholine-4-carboxamido)benzo[d]thiazol-6-yl)carbonohydrazonoyl dicyanide] | 97 | 80 | 68 | 95.7 | 86.1 | –
2 | CN1CCN(c2nc3ccc(NN=C(C#N)C#N)cc3s2)CC1 [Compound 8, (2-(4-methylpiperazin-1-yl)benzo[d]thiazol-6-yl)carbonohydrazonoyl dicyanide] | 101 | > 100 | – | > 100 | 77.4 | 32
3 | CC(=O)N1CCN(c2nc3ccc(NN=C(C#N)C#N)cc3s2)CC1 [Compound 30, (2-(4-acetylpiperazin-1-yl)benzo[d]thiazol-6-yl)carbonohydrazonoyl dicyanide] | 99 | 86.2 | – | 88.9 | 83.8 | 60
4 | CC(C)N1CCN(c2nc3ccc(NN=C(C#N)C#N)cc3o2)CC1 [Compound 28, (2-(4-isopropylpiperazin-1-yl)benzo[d]oxazol-6-yl)carbonohydrazonoyl dicyanide] | 99 | 90.8 | – | 78 | 81.8 | 16
5 | CC1CN(c2nc3ccc(NN=C(C#N)C#N)cc3o2)CC(C)O1 (stereo not drawn) [Compound 18, (2-(2,6-dimethylmorpholino)benzo[d]oxazol-6-yl)carbonohydrazonoyl dicyanide] | 100 | 100 | – | 97 | 86.2 | 128
6 | CC1CN(c2nc3ccc(NN=C(C#N)C#N)cc3s2)CC(C)O1 (stereo not drawn) [Compound 10, (2-(2,6-dimethylmorpholino)benzo[d]thiazol-6-yl)carbonohydrazonoyl dicyanide] | 109 | 83.6 | – | 93.8 | 87.3 | 24
7 | CC1CN(c2nc3ccc(NN=C(C#N)C#N)cc3s2)CCO1 (stereo not drawn) [Compound 12, (2-(2-methylmorpholino)benzo[d]thiazol-6-yl)carbonohydrazonoyl dicyanide] | 102 | 84.8 | – | 94.8 | 85.1 | 32
8 | CCn1c(N2CCOCC2)nc2cc(NN=C(C#N)C#N)ccc21 [Compound 33, (1-ethyl-2-morpholino-1H-benzo[d]imidazol-5-yl)carbonohydrazonoyl dicyanide] | 97 | 78.6 | – | 97.9 | 89 | 4
9 | CCn1c(N2CCOCC2)nc2ccc(NN=C(C#N)C#N)cc21 [Compound 32, (1-ethyl-2-morpholino-1H-benzo[d]imidazol-6-yl)carbonohydrazonoyl dicyanide] | 98 | 77.1 | – | 92.1 | 92.3 | 12
10 | N#CC(C#N)=NNc1ccc2nc(N3CC4CCC(C3)O4)sc2c1 [Compound 23, (2-(8-oxa-3-azabicyclo[3.2.1]octan-3-yl)benzo[d]thiazol-6-yl)carbonohydrazonoyl dicyanide] | 92 | 69.6 | – | 71.5 | 86.6 | 48
11 | N#CC(C#N)=NNc1ccc2nc(N3CCOCC3)sc2c1 [Compound 2, (2-morpholinobenzo[d]thiazol-6-yl)carbonohydrazonoyl dicyanide] | 100 | 96.7 | – | > 100 | 94.10 | 4
12 | CC1CN(c2nc3ccc(NN=C(C#N)C#N)cc3o2)CCO1 (stereo not drawn) [Compound 15, (2-(2-methylmorpholino)benzo[d]oxazol-6-yl)carbonohydrazonoyl dicyanide] | 100 | 87.9 | – | > 100 | > 100 | 48
13 | N#CC(C#N)=NNc1ccc2nc(N3CC4CCC(C3)O4)oc2c1 [Compound 26, (2-(8-oxa-3-azabicyclo[3.2.1]octan-3-yl)benzo[d]oxazol-6-yl)carbonohydrazonoyl dicyanide] | 99 | 82.1 | – | 82.1 | 99 | 10
14 | COC1CCN(c2nc3ccc(NN=C(C#N)C#N)cc3o2)CC1 [Compound 17, (2-(4-methoxypiperidin-1-yl)benzo[d]oxazol-6-yl)carbonohydrazonoyl dicyanide] | 100 | 90 | – | 89.5 | > 100 | 88
15 | COC1CCN(c2nc3ccc(NN=C(C#N)C#N)cc3s2)CC1 [Compound 9, (2-(4-methoxypiperidin-1-yl)benzo[d]thiazol-6-yl)carbonohydrazonoyl dicyanide] | 100 | 86.9 | – | > 100 | 83.8 | 36
16 | N#CC(C#N)=NNc1ccc2nc(NC(=O)N3CC4CCC(C3)O4)sc2c1 [Compound 40, (2-(8-oxa-3-azabicyclo[3.2.1]octane-3-carboxamido)benzo[d]thiazol-6-yl)carbonohydrazonoyl dicyanide] | 98 | 65.7 | 316 | 88.6 | 93.4 | –
17 | N#CC(C#N)=NNc1ccc2nc(N3C4CCC3COC4)sc2c1 [Compound 11, (2-(3-oxa-8-azabicyclo[3.2.1]octan-8-yl)benzo[d]thiazol-6-yl)carbonohydrazonoyl dicyanide] | 100 | 80.3 | – | 98.6 | 87.8 | 32
18 | Cn1c(N2CCOCC2)nc2ccc(NN=C(C#N)C#N)cc21 [Compound 5, (1-methyl-2-morpholino-1H-benzo[d]imidazol-6-yl)carbonohydrazonoyl dicyanide] | 100 | 90.2 | – | > 100 | 91.9 | 32
